The values that follow come from patent publication US20230016034A1, “ENHANCEMENT OF iPSC-DERIVED EFFECTOR IMMUNE CELL USING SMALL COMPOUNDS” (Fate Therapeutics, Inc., priority 2019, published 2023).

The subject of this experiment is Nalm6-luciferase cells. The experiment can be described thus: In vivo efficacy of dexamethasone-treated post-thaw CD19-CAR iT cells, systemic Nalm6-luciferase model. On the set-up: species or system NSG female mice. The note with it: p>0.1. From the text: Tumor progression was monitored at days 7, 14 and 20 post tumor injection by bioluminescent imaging. CAR-iT cells treated with dexamethasone (FIG. 8B) were compared with control cells without dexamethasone treatment (FIG. 8A) in cultures for iv/iv in vivo efficacy.

Each structure is given as a SMILES string. Some results are limits rather than exact numbers.

Take `C[C@@H]1C[C@H]2[C@@H]3CCC4=CC(=O)C=C[C@]4(C)[C@@]3(F)[C@@H](O)C[C@]2(C)[C@@]1(O)C(=O)CO` [dexamethasone]: the Days of survival is more than 80 days.
